In ChEMBL document CHEMBL1777785, “A novel approach for predicting P-glycoprotein (ABCB1) inhibition using molecular interaction fields” (J Med Chem, 2011):

Assays:
[1] = molecular target: T1, ATP-dependent translocase ABCB1 (Homo sapiens, UniProt P08183); settings: l5178, 20 min, 100 µM
[2] = molecular target: T1, ATP-dependent translocase ABCB1

T1 sequence (P08183 whole entry): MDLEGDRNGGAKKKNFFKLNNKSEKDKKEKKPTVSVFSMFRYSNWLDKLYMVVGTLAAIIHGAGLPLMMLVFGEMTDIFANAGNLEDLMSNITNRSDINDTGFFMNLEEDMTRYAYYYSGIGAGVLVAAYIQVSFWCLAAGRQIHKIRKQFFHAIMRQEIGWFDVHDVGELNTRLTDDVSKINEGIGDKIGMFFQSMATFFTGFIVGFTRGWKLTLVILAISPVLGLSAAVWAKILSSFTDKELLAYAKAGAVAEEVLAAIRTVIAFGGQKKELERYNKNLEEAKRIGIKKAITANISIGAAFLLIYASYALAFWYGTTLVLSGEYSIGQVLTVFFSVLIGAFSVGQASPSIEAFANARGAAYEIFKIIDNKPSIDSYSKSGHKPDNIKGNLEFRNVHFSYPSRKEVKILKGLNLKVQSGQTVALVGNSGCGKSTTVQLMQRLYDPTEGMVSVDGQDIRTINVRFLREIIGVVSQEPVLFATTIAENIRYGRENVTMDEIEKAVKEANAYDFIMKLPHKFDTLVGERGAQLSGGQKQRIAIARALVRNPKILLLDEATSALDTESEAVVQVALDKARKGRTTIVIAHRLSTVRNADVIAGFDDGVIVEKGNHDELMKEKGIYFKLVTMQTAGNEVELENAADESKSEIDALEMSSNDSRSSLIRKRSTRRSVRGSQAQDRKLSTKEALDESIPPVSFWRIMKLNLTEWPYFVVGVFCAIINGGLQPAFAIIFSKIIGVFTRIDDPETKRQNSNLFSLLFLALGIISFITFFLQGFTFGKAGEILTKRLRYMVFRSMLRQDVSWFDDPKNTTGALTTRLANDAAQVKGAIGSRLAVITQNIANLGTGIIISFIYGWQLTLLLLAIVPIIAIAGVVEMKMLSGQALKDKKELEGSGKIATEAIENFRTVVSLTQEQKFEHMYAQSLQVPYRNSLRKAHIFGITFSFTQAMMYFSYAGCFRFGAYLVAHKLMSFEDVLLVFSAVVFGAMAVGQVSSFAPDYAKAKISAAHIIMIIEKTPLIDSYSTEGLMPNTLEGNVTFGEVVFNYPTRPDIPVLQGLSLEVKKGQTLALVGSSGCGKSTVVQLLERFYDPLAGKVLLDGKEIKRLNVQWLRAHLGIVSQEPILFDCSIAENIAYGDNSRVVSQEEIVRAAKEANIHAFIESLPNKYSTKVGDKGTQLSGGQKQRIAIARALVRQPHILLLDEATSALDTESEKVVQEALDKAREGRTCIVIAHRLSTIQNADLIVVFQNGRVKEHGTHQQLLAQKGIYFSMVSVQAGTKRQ

Row | Compound | Alpha max [1] | IC50 [2]
1 | C=CCc1ccccc1OCC(O)CNC(C)C (centres undefined) [ALPRENOLOL] | 0.05 | 
2 | CCN(CC)CCCN(c1ccccc1)C1Cc2ccccc2C1 [APRINDINE] | 0.16 | 
3 | O=C1CCc2ccc(OCCCCN3CCN(c4cccc(Cl)c4Cl)CC3)cc2N1 [ARIPIPRAZOLE] | 0.99 | 
4 | CC(C)[C@H]1CC[C@H](C(=O)N[C@H](Cc2ccccc2)C(=O)O)CC1 [NATEGLINIDE] | 0 | 
5 | CCOc1cc(CC(=O)N[C@@H](CC(C)C)c2ccccc2N2CCCCC2)ccc1C(=O)O [REPAGLINIDE] | 0.35 | 

Continued, values first:

Row | Alpha max [1] | IC50 [2] | Compound
6 | 0.74 | 6.5 µM | O=C1NCCN1CCN1CCC(c2cn(-c3ccc(F)cc3)c3ccc(Cl)cc23)CC1 [SERTINDOLE]
7 | 0 |  | CC1(C)S[C@@H]2[C@H](NC(=O)[C@H](C(=O)O)c3ccsc3)C(=O)N2[C@H]1C(=O)O [TICARCILLIN]
8 | 0.19 |  | O=C1Cc2cc(CCN3CCN(c4nsc5ccccc45)CC3)c(Cl)cc2N1 [ZIPRASIDONE]
